From patent publication US20080242636A1, “MODIFIED CYCLODEXTRIN SULFATE-71 (TERIGYN) AS A MICROBICIDE AGENT” (priority 2007, published 2008)

Experiments:
[1] = test system: LAV-1, a laboratory strain of HIV-1; experiment: p24 antigen anti-HIV assay in pretreated PBMC and MT4 cells infected with LAV-1; type: cell-based
Procedure: (§1) Primary peripheral blood mononuclear cells and a MT4 cell line were pretreated with varying concentrations of terygyn before infection with LAV-1, a laboratory strain of HIV-1. As a control, a set of similar cells were not pretreated with the compound. Anti-HIV activity was measured using p24 antigen testing. Terygyn achieved total HIV inhibition (IC100) at 1 ug/ml. Cell toxicity was not observed till the concentration of terygyn was 10 ug/ml. […] Terygyn's ability to inhibit HIV at lower concentration makes it a more attractive compound for safe clinical use.

[2] = test system: Primary peripheral blood mononuclear cells and MT4 cell line; type: cell-based
Procedure: as §1

HIV-1 R5 viruses = experiment: TZM-bL luciferase assay, R5 viruses; type: cell-based; conditions: TZM-bL cells, 48 hr at 37 C
Procedure: (§2) To further determine the inhibition of Terygyn of either CXCR4 or R5 viruses in cervical explants, various concentrations of Terygyn were cultured in TZM-bL cells with TCID50 HIV-1. TZM-bL are X4 positive HeLa cell clones that have been engineered to express CD4 and CCR5 and integrates a reporter gene for firefly luciferase and E coli b-galactosidase. Virus and drugs were left in culture for 48 hr at 37 C and luciferase assay determined thereafter.

HIV-1 X4 viruses = experiment: TZM-bL luciferase assay, X4 viruses; type: cell-based; conditions: TZM-bL cells, 48 hr at 37 C
Procedure: as §2

HIV = conditions: as described by Tanabe Seiyaku 1991; cited from earlier work
[3] = rats, safety trials; cited from earlier work
[4] = IC50 comparison with literature value
[5] = PBMC and MT4 pretreated, LAV-1, p24 antigen

Structure (SMILES): O=S(=O)([O-])OC[C@@H]1O[C@@H]2O[C@H]3[C@H](OS(=O)(=O)[O-])[C@H](OCc4ccccc4)[C@@H](O[C@H]4[C@H](OS(=O)(=O)[O-])[C@H](OCc5ccccc5)[C@@H](O[C@H]5[C@H](OS(=O)(=O)[O-])[C@H](OCc6ccccc6)[C@@H](O[C@H]6[C@H](OS(=O)(=O)[O-])[C@H](OCc7ccccc7)[C@@H](O[C@H]7[C@H](OS(=O)(=O)[O-])[C@H](OCc8ccccc8)C(O[C@H]8[C@H](OS(=O)(=O)[O-])[C@H](OCc9ccccc9)C(O[C@H]1[C@H](OS(=O)(=O)[O-])[C@@H]2OCc1ccccc1)O[C@H]8COS(=O)(=O)[O-])O[C@H]7COS(=O)(=O)[O-])O[C@H]6COS(=O)(=O)[O-])O[C@H]5COS(=O)(=O)[O-])O[C@H]4COS(=O)(=O)[O-])O[C@H]3COS(=O)(=O)[O-].[Na+].[Na+].[Na+].[Na+].[Na+].[Na+].[Na+].[Na+].[Na+].[Na+].[Na+].[Na+].[Na+].[Na+] [Terygyn, Tetradecasodium heptakis (2-0 benzyl)β-cyclodextrin tetradecasulfate]
- fold more potent than PRO 2000 [1, 4]: fifty-fold
- fold more potent than Ushercell [1, 4]: 100 fold
- in vitro antiviral activity IC50 [1, 5]: 0.5 µg/mL
- total HIV inhibition (IC100) [1, 5]: 1 µg/mL
- concentration until which cell toxicity was not observed [2]: 10000 ng/mL
- IC50 R5 viruses (HIV-1 R5 viruses): 0.13 ± 0.05 µg/mL
- IC50 X4 viruses (HIV-1 X4 viruses): 0.88 ± 1.2 µg/mL
- anti-HIV activity in vitro (HIV): 0.98 µg/mL
- tolerability [3]: 125 mg/kg/day
